{"source": "patent US10757943B2", "about": "“Thidiazuron mixtures and uses thereof” (Valent BioSciences LLC, priority 2017, dated 2020)", "format_in_all_cases": "in vivo", "key": {"[1]": {"system": "Red Flame seedless grape vines", "test": "Bud break and shoot length of field-grown Red Flame seedless grape vines (Example 2)", "settings": "hydrogen cyanamide 10,000 ppm, thidiazuron 300 ppm, 17-0-0 197,100 ppm", "description": "To assess the ability of mixtures of the invention to promote and synchronize bud break these mixtures were applied to field-grown Red Flame seedless grape vines and examined for bud break (initiation of growth) and subsequent shoot development. Thidiazuron, hydrogen cyanamide, 17-0-0 fertilizer, and mixtures thereof were each applied individually or sequentially (co-applied) to the separate spurs of Red Flame seedless grape vines. Plants were evaluated for bud break at 31 days after treatment, for percent bud break and total new shoot length at 48 days after treatment. Results of these evaluations can be seen below in Tables 4 and 5."}, "Concord grape vines [2]": {"system": "Concord grape vines", "test": "Bud break and harvest weight of endo-dormant two-year-old Concord grape vines in the greenhouse (Example 4)", "settings": "thidiazuron ppm and 17-0-0 % as in label, 15-0-0 65,880 ppm", "source_text": "Two-year-old Concord grape vines were purchased commercially. These vines had just lost their leaves and were shipped shortly after they were dug at the nursery. Thus, the vines had not fulfilled their chilling requirement and were considered endo-dormant. The vines were potted individually into one-gallon pots containing ProMix® BX immediately upon receipt and subsequently pruned back to the five proximal buds on the one-year old wood. Within two hours of pruning, treatment solutions were applied using a foam paint brush to the remaining one-year old wood, including the cut end from pruning. Two treatments, water and hydrogen cyanimide, which acted as negative and positive controls, respectively, were included in all studies.\nTreatment solutions were made fresh in water and contained 1% (v/v) non-ionic surfactant. In all cases, two treatment solutions were applied to the plants. Where a single component was used for a treatment, the first application solution was water containing surfactant; in the cases where combination treatments were made to the same plant, the first treatment solution was allowed to dry prior to applying the second.\nThe treated plants were kept in a conventional greenhouse under supplemental lighting. Greenhouse conditions were 65:60° F. Day:Night temperature with a 16:8 hour photoperiod. Relief from dormancy was assessed every two days during the course of the study. Dormancy was considered relieved upon the emergence of a green bud. Both the number of ‘broken buds’ per plant and the date of relief of plants from dormancy were assessed. At the close of the study, new growth was removed from each of the treated plants and weighed."}, "Concord grape vines [3]": {"system": "Concord grape vines", "test": "Bud break and shoot growth of potted dormant Concord grape vines in the greenhouse (Example 1)", "settings": "for % bud break (vines with at least one bud break): hydrogen cyanamide 10,000 ppm, 17-0-0 197,100 ppm, 15-0-0 239,060 ppm, ACC 1,000 ppm; for Initial to 50% Bud Break: synchrony of bud break; for 50% Bud Break (DAT): time to 50% bud break", "source_text": "An aqueous 50% hydrogen cyanamide solution (Sigma-Aldrich, St. Louis, Mo. USA) was used as the source of hydrogen cyanamide. The commercial product, Dormex® contains 50% hydrogen cyanamide (w/v) in water.\nErger® was used as the source of 15-0-0 fertilizer. (Erger is a registered trademark of Valagro S.P.A., Italy and is available from Helena Chemical Company, Collierville, Tenn., USA). Erger® contains 15% total nitrogen as 3.1% ammoniacal nitrogen, 5.8% nitrate nitrogen and 6.1% urea nitrogen and 3.3% calcium derived from ammonium nitrate, calcium nitrate and urea. As used herein, the term “15-0-0 fertilizer” refers to the Erger® formulation above and all formulations described in International PCT application publication WO/2001/037653A2 by Valagro S.P.A., Italy, which is incorporated, herein, in its entirety.\nCAN-17 was used as the source of 17-0-0 fertilizer. CAN-17 contains 17% total nitrogen as 4.6% ammonium nitrogen and […] nitrate nitrogen and 1.3% urea nitrogen and 8.8% calcium derived from ammonium nitrate and calcium nitrate. CAN-17 is available from J.R. Simplot Company (Boise, Id., USA).\nTo assess the ability of mixtures of the invention to promote and synchronize bud break these mixtures were applied to Concord grape vines and examined for bud break (initiation of growth) and subsequent shoot development. Specifically, 1 year old dormant bare rooted Concord grape vines were planted in pots containing Pro-Mix® BX potting soil (Pro-Mix is a registered trademark of and available from Premier Horticulture Ltd.) and pruned to 5 nodes on a single shoot. Aqueous solutions of thidiazuron, hydrogen cyanamide, 15-0-0 fertilizer, 17-0-0 fertilizer and 1-aminocyclopropane-1-carboxylic acid (“ACC”), and mixtures thereof were each applied individually or sequentially or co-applied to the first-year wood of separate Concord grape vines. Plants were grown in the greenhouse for 49 days and evaluated for percent of vines showing bud break, or relief from dormancy, periodically between 7 days and the conclusion of the experiment. […] At 49 days after treatment (DAT), the plants were sacrificed and measured for total number of flower clusters, total new shoot length, longest new shoot, combined new shoot fresh weight and combined new shoot dry weight. New shoot growth is the growth arising from the dormant buds not including the woody growth that was planted and gave rise to the new growth.\nSynergy is calculated by the Abbott method: %Cexp=A+B−(AB/100), where % Cexp is the expected efficacy and in which A and B are the speed of bud break or shoot length or shoot weight given by the single active ingredients. If the ratio between the experimentally observed efficacy of the mixture Cobs and the expected efficacy of the mixture is greater than 1, synergistic interactions are present in the mixture” (Gisi, Synergistic Interaction of Fungicides in Mixtures, The American Phytopathological Society, 86:11, 1273-1279,1996)."}, "[4]": {"settings": "49 days post treatment, thidiazuron ppm as in label, other concentrations as in Table 1"}, "[5]": {"settings": "thidiazuron 300 ppm unless label states other, other concentrations as in Table 1"}, "[6]": {"settings": "thidiazuron 300 ppm unless label states other, other concentrations as in Table 1, listed as hydrogen cyanamide"}}}
{"smiles": "N#CN", "note": "[Hydrogen Cyanamide, hydrogen cyanamide]", "values": [{"measurement": "Broken Buds per plant (Average Buds Broken per Spur)", "setting": "[1]; 31 days after treatment", "value": 0.53}, {"measurement": "% Broken Buds", "setting": "[1]; 48 days after treatment", "value": 58.8, "unit": "%"}, {"measurement": "Total Shoot Length", "setting": "[1]; 48 days after treatment", "value": 25.2}, {"measurement": "Fresh Shoot Weight (g)/Plant", "setting": "Concord grape vines [2]; new growth at close of study", "value": 31.49, "unit": "g"}, {"measurement": "50% Bud Break (DAT)", "setting": "Concord grape vines [2]", "value": 16, "unit": "DAT"}, {"measurement": "100% Bud Break (DAT)", "setting": "Concord grape vines [2]", "value": 33, "unit": "DAT"}, {"measurement": "Initial to 50% Bud Break", "setting": "Concord grape vines [2]", "value": 2}, {"measurement": "Number of Buds Broken/Plant", "setting": "Concord grape vines [2]", "value": 1.5}, {"measurement": "% bud break (vines with at least one bud break)", "setting": "Concord grape vines [3]; 7 DAT, thidiazuron 300 ppm unless label states other", "value": 0, "unit": "%"}, {"measurement": "% bud break (vines with at least one bud break)", "setting": "Concord grape vines [3]; 10 DAT, thidiazuron 300 ppm unless label states other", "value": 11.1, "unit": "%"}, {"measurement": "% bud break (vines with at least one bud break)", "setting": "Concord grape vines [3]; 13 DAT, thidiazuron 300 ppm unless label states other", "value": 44.4, "unit": "%"}, {"measurement": "% bud break (vines with at least one bud break)", "setting": "Concord grape vines [3]; 15 DAT, thidiazuron 300 ppm unless label states other", "value": 66.7, "unit": "%"}, {"measurement": "% bud break (vines with at least one bud break)", "setting": "Concord grape vines [3]; 17 DAT, thidiazuron 300 ppm unless label states other", "value": 77.8, "unit": "%"}, {"measurement": "% bud break (vines with at least one bud break)", "setting": "Concord grape vines [3]; 20 DAT, thidiazuron 300 ppm unless label states other", "value": 88.9, "unit": "%"}, {"measurement": "% bud break (vines with at least one bud break)", "setting": "Concord grape vines [3]; 22 DAT, thidiazuron 300 ppm unless label states other", "value": 88.9, "unit": "%"}, {"measurement": "% bud break (vines with at least one bud break)", "setting": "Concord grape vines [3]; 24 DAT, thidiazuron 300 ppm unless label states other", "value": 88.9, "unit": "%"}, {"measurement": "% bud break (vines with at least one bud break)", "setting": "Concord grape vines [3]; 27 DAT, thidiazuron 300 ppm unless label states other", "value": 88.9, "unit": "%"}, {"measurement": "% bud break (vines with at least one bud break)", "setting": "Concord grape vines [3]; 29 DAT, thidiazuron 300 ppm unless label states other", "value": 88.9, "unit": "%"}, {"measurement": "% bud break (vines with at least one bud break)", "setting": "Concord grape vines [3]; 31 DAT, thidiazuron 300 ppm unless label states other", "value": 88.9, "unit": "%"}, {"measurement": "% bud break (vines with at least one bud break)", "setting": "Concord grape vines [3]; 34 DAT, thidiazuron 300 ppm unless label states other", "value": 100.0, "unit": "%"}, {"measurement": "% bud break (vines with at least one bud break)", "setting": "Concord grape vines [3]; 36 DAT, thidiazuron 300 ppm unless label states other", "value": 100.0, "unit": "%"}, {"measurement": "% bud break (vines with at least one bud break)", "setting": "Concord grape vines [3]; 38 DAT, thidiazuron 300 ppm unless label states other", "value": 100.0, "unit": "%"}, {"measurement": "% bud break (vines with at least one bud break)", "setting": "Concord grape vines [3]; 41 DAT, thidiazuron 300 ppm unless label states other", "value": 100.0, "unit": "%"}, {"measurement": "% bud break (vines with at least one bud break)", "setting": "Concord grape vines [3]; 43 DAT, thidiazuron 300 ppm unless label states other", "value": 100.0, "unit": "%"}, {"measurement": "% bud break (vines with at least one bud break)", "setting": "Concord grape vines [3]; 49 DAT, thidiazuron 300 ppm unless label states other", "value": 100.0, "unit": "%"}, {"measurement": "Combined Shoot Dry Weight", "setting": "Concord grape vines [3]; [4]", "value": 9.0, "unit": "g"}, {"measurement": "Combined Shoot Fresh Weight", "setting": "Concord grape vines [3]; [4]", "value": 39.3, "unit": "g"}, {"measurement": "Longest Shoot Length", "setting": "Concord grape vines [3]; [4]", "value": 83.8, "unit": "cm"}, {"measurement": "Total # of Flower Clusters", "setting": "Concord grape vines [3]; [4]", "value": 0.0}, {"measurement": "Total Shoot Length", "setting": "Concord grape vines [3]; [4]", "value": 129.8, "unit": "cm"}, {"measurement": "Dry Weight (g)/25% Bud Break to Harvest (d)", "setting": "Concord grape vines [3]; combined shoot dry weight at 49 DAT normalised by days from 25% bud break to harvest", "value": 0.24, "unit": "g/day"}, {"measurement": "Dry Weight (g)/50% Bud Break to Harvest (d)", "setting": "Concord grape vines [3]; combined shoot dry weight at 49 DAT normalised by days from 50% bud break to harvest", "value": 0.26, "unit": "g/day"}, {"measurement": "Fresh Weight (g)/50% Bud Break to Harvest (d)", "setting": "Concord grape vines [3]; combined shoot fresh weight at 49 DAT normalised by days from 50% bud break to harvest", "value": 1.12, "unit": "g/day"}, {"measurement": "50% Bud Break to Harvest", "setting": "Concord grape vines [3]; harvest at day 49, thidiazuron 300 ppm unless label states other, other concentrations as in Table 1", "value": 35, "unit": "days"}, {"measurement": "Initial to 50% Bud Break", "setting": "Concord grape vines [3]; [5]", "value": 5, "unit": "days"}, {"measurement": "Initial to 50% Bud Break", "setting": "Concord grape vines [3]; [6]", "value": "≤ 5", "unit": "days"}, {"measurement": "25% Bud Break (DAT)", "setting": "Concord grape vines [3]; time to 25% bud break, thidiazuron 300 ppm unless label states other, other concentrations as in Table 1", "value": 11, "unit": "DAT"}, {"measurement": "50% Bud Break (DAT)", "setting": "Concord grape vines [3]; [5]", "value": 14, "unit": "DAT"}, {"measurement": "50% Bud Break (DAT)", "setting": "Concord grape vines [3]; [6]", "value": "≤ 14", "unit": "DAT"}]}
